In ChEMBL document CHEMBL4321821, “Opioids as Substrates and Inhibitors of the Genetically Highly Variable Organic Cation Transporter OCT1” (J Med Chem, 2019):
Calls of active or inactive are those of the source. The calls are words filed in the database; no cut-off is given here.

Experiments:
[1] = Ratio of unbound Cmax in human at 50 mg, po to inhibition of human OCT1 expressed in HEK293 cells assessed as reduction in ASP+ substrate uptake by microplate reader based analysis; type: ADME, organism-based; conditions: in vivo
[2] = Unbound maximal portal vein concentration of in human at 50 mg, iv; type: ADME, tissue-based; conditions: in vivo
[3] = molecular target: T1, Solute carrier family 22 member 1 (Homo sapiens, UniProt O15245); assay: Inhibition of human OCT1 expressed in HEK293 cells assessed as reduction in ASP+ substrate uptake by microplate reader based analysis; type: cell-based
T1 sequence (O15245 whole entry): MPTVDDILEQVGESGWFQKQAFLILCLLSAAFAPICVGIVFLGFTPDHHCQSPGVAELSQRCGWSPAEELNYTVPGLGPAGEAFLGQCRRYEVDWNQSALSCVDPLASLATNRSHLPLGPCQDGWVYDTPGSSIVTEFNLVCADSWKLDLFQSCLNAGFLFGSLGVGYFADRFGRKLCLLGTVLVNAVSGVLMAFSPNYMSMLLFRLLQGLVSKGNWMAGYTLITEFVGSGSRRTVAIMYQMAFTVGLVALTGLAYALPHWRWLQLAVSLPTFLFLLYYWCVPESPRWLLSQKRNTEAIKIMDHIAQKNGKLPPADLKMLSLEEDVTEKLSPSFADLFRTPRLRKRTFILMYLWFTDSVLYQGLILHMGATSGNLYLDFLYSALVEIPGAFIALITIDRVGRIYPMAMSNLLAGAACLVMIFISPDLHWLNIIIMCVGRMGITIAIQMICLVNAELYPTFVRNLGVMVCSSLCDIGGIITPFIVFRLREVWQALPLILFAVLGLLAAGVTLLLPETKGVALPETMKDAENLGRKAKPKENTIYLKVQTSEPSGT

[4] = Ratio of unbound Cmax in human at 50 mg, iv to inhibition of human OCT1 expressed in HEK293 cells assessed as reduction in ASP+ substrate uptake by microplate reader based analysis; type: ADME, organism-based; conditions: in vivo
[5] = Cmax in human at 50 mg, iv; type: ADME; set-up: dose 50 mg, route intravenous; conditions: in vivo
OCT1 (SLC22A1) [6] = molecular target: T2, OCT1 (SLC22A1) (Homo sapiens, UniProt O15245); assay: Substrate activity at human OCT1 expressed in HEK293 cells assessed as increase in compound uptake at 0.05 uM incubated for 2 mins by LC-MS/MS analysis relative to control empty vector transfected cells; type: cell-based; conditions: HEK293 cells that express human OCT1, read-out: FC
T2 sequence (O15245 whole entry): T1 sequence (O15245 whole entry)

OCT1 (SLC22A1) [7] = molecular target: T2, OCT1 (SLC22A1); assay: Substrate activity at human OCT1 expressed in HEK293 cells assessed as increase in compound uptake at 0.5 uM incubated for 2 mins by LC-MS/MS analysis relative to control empty vector transfected cells; type: cell-based; conditions: HEK293 cells that express human OCT1, read-out: FC
[8] = Cmax in human at 50 mg, po; type: ADME; set-up: dose 50 mg, route oral; conditions: in vivo
in vitro = conditions: PAMPA
Description: Passive membrane permeability by LC-MS/MS analysis based PAMPA

[9] = Ratio of unbound maximal portal vein concentration in human at 50 mg, po to inhibition of human OCT1 expressed in HEK293 cells assessed as reduction in ASP+ substrate uptake by microplate reader based analysis; type: ADME, organism-based; conditions: in vivo
[10] = Unbound Cmax in human at 50 mg, iv; type: ADME; conditions: in vivo
[11] = Unbound maximal portal vein concentration of in human at 50 mg, po; type: ADME, tissue-based; conditions: in vivo
OCT1 (SLC22A1) [12] = molecular target: T2, OCT1 (SLC22A1); assay: Substrate activity at human OCT1 expressed in HEK293 cells assessed as increase in compound uptake at 0.1 uM incubated for 2 mins by LC-MS/MS analysis relative to control empty vector transfected cells; type: cell-based; conditions: HEK293 cells that express human OCT1, read-out: FC
[13] = Ratio of unbound maximal portal vein concentration in human at 50 mg, iv to inhibition of human OCT1 expressed in HEK293 cells assessed as reduction in ASP+ substrate uptake by microplate reader based analysis; type: ADME, organism-based; conditions: in vivo
[14] = Unbound Cmax in human at 50 mg, po; type: ADME; conditions: in vivo
HEK293 [15] = assay: Substrate activity at human OCT1*2 allele mutant expressed in HEK293 cells assessed as increase in compound uptake at 0.1 uM incubated for 2 mins by LC-MS/MS analysis relative to control empty vector transfected cells; type: cell-based
HEK293 [16] = assay: Substrate activity at human OCT1*7 allele mutant expressed in HEK293 cells assessed as increase in compound uptake at 0.1 uM incubated for 2 mins by LC-MS/MS analysis relative to control empty vector transfected cells; type: cell-based
HEK293 [17] = assay: Substrate activity at human OCT1*5 allele mutant expressed in HEK293 cells assessed as increase in compound uptake at 0.1 uM incubated for 2 mins by LC-MS/MS analysis relative to control empty vector transfected cells; type: cell-based
HEK293 [18] = assay: Substrate activity at human OCT1*6 allele mutant expressed in HEK293 cells assessed as increase in compound uptake at 0.1 uM incubated for 2 mins by LC-MS/MS analysis relative to control empty vector transfected cells; type: cell-based
OCT1 (SLC22A1) [19] = molecular target: T2, OCT1 (SLC22A1); assay: Substrate activity at human OCT1 expressed in HEK293 cells assessed as increase in compound uptake by measuring Km incubated for 2 mins by LC-MS/MS analysis based Michaelis-Menten plot analysis relative to control empty vector transfected cells; type: cell-based; conditions: HEK293 cells that express human OCT1
HEK293 [20] = assay: Substrate activity at human OCT1*3 allele mutant expressed in HEK293 cells assessed as increase in compound uptake at 0.1 uM incubated for 2 mins by LC-MS/MS analysis relative to control empty vector transfected cells; type: cell-based
HEK293 [21] = assay: Substrate activity at human OCT1*8 allele mutant expressed in HEK293 cells assessed as increase in compound uptake at 0.1 uM incubated for 2 mins by LC-MS/MS analysis relative to control empty vector transfected cells; type: cell-based
[22] = Unbound maximal portal vein concentration of in human at 450 mg, po; type: ADME, tissue-based; conditions: in vivo
[23] = molecular target: T1, Solute carrier family 22 member 1; assay: Substrate activity at human OCT1 expressed in HEK293 cells assessed as increase in compound uptake by measuring Vmax incubated for 2 mins by LC-MS/MS analysis based Michaelis-Menten plot analysis relative to control empty vector transfected cells; type: cell-based; conditions: hek293, 2 min
[24] = Cmax in human at 450 mg, po; type: ADME; set-up: dose 450 mg, route oral; conditions: in vivo
[25] = Intrinsic clearance in human liver microsomes; type: ADME, Microsome; conditions: read-out: CLH
HEK293 [26] = assay: Substrate activity at human OCT1*4 allele mutant expressed in HEK293 cells assessed as increase in compound uptake at 0.1 uM incubated for 2 mins by LC-MS/MS analysis relative to control empty vector transfected cells; type: cell-based
[27] = Unbound Cmax in human at 450 mg, po; type: ADME; conditions: in vivo
[28] = Unbound Cmax in human at 5 mg, po dosed as immediate release formulation; type: ADME, organism-based; conditions: in vivo
[29] = Unbound maximal portal vein concentration of in human at 10 mg, po dosed as controlled release formulation; type: ADME, organism-based; conditions: in vivo
[30] = Unbound Cmax in human at 10 mg, po dosed as controlled release formulation; type: ADME, organism-based; conditions: in vivo
[31] = Unbound maximal portal vein concentration of in human at 5 mg, po dosed as immediate release formulation; type: ADME, organism-based; conditions: in vivo
[32] = Cmax in human at 5 mg, po dosed as immediate release formulation; type: ADME, organism-based; set-up: dose 5 mg, route oral; conditions: in vivo
[33] = Ratio of unbound maximal portal vein concentration in human at 5 mg, po dosed as immediate release formulation to inhibition of human OCT1 expressed in HEK293 cells assessed as reduction in ASP+ substrate uptake by microplate reader based analysis; type: ADME, organism-based; conditions: in vivo
[34] = Cmax in human at 10 mg, po dosed as controlled release formulation; type: ADME, organism-based; set-up: dose 10 mg, route oral; conditions: in vivo
[35] = Ratio of unbound maximal portal vein concentration in human at 10 mg, po dosed as controlled release formulation to inhibition of human OCT1 expressed in HEK293 cells assessed as reduction in ASP+ substrate uptake by microplate reader based analysis; type: ADME, organism-based; conditions: in vivo
[36] = Ratio of unbound Cmax in human at 5 mg, po dosed as immediate release formulation to inhibition of human OCT1 expressed in HEK293 cells assessed as reduction in ASP+ substrate uptake by microplate reader based analysis; type: ADME, organism-based; conditions: in vivo
[37] = Ratio of unbound Cmax in human at 10 mg, po dosed as controlled release formulation to inhibition of human OCT1 expressed in HEK293 cells assessed as reduction in ASP+ substrate uptake by microplate reader based analysis; type: ADME, organism-based; conditions: in vivo
[38] = molecular target: T1, Solute carrier family 22 member 1; assay: Substrate activity at OCT1 in primary human hepatocytes assessed as increase in compound uptake at 0.1 uM incubated for 2 mins by LC-MS/MS analysis relative to control; type: cell-based
[39] = Unbound maximal portal vein concentration of in human at 4 mg, po; type: ADME, tissue-based; conditions: in vivo
[40] = Unbound Cmax in human at 4 mg, po; type: ADME; conditions: in vivo
[41] = Cmax in human at 4 mg, po; type: ADME; set-up: dose 4 mg, route oral; conditions: in vivo
[42] = Cmax in human at 10 mg, iv; conditions: in vivo
[43] = Cmax in human at 10 mg, im; conditions: in vivo
[44] = Cmax in human at 50 mg, po dosed as slow release formulation; conditions: in vivo
[45] = Cmax in human at 10 mg, po dosed as immediate release formulation; conditions: in vivo

With CCOC(=O)[C@@]1(c2ccccc2)CCC=C[C@@H]1N(C)C the Ratio [1] was 0.002, the fCmax [2] was 10.58 µM and the IC50 [3] was 38.7 µM. For the same compound, the Ratio [4] was 0.064, the Cmax [5] was 3310 nM and the uptake ratio at 2 min, 0.05 µM (OCT1 (SLC22A1) [6]) was 1.3. For the same compound, the uptake ratio at 2 min, 0.5 µM (OCT1 (SLC22A1) [7]) was 1.3, the Cmax [8] was 110 nM and the Papp (in vitro) was 31.6 ×10⁻⁶ cm/s. It also gave a Ratio [9] of 0.211, a fCmax [10] of 2.49 µM and a fCmax [11] of 8.18 µM. The uptake ratio at 2 min, 0.1 µM (OCT1 (SLC22A1) [12]) was 1.3, the Ratio [13] was 0.273 and the fCmax [14] was 0.08 µM.
For C[N+]1(CC2CC2)CC[C@]23c4c5ccc(O)c4O[C@H]2C(=O)CC[C@@]3(O)[C@H]1C5 (stereo not given in full) [METHYLNALTREXONE], the Activity (HEK293 [15]) was “inactive”, the Activity (HEK293 [16]) was “Active” and the Activity (HEK293 [17]) was “inactive”. For the same compound, the Activity (HEK293 [18]) was “inactive”, the Km at 2 min (OCT1 (SLC22A1) [19]) was 20 to 20.3 µM and the IC50 [3] was 234 µM. The Activity (HEK293 [20]) was “inactive”, the Activity (HEK293 [21]) was “Active” and the fCmax [22] was 64.93 µM. For the same compound, the Vmax [23] was 371.9 pmol/min/mg, the Cmax [24] was 140 nM and the microsomal CLint [25] was 32 µL/min/mg. For the same compound, the Activity (HEK293 [26]) was “inactive” and the fCmax [27] was 0.12 µM.
COc1ccc2c3c1O[C@H]1C(=O)CC[C@@]4(O)[C@@H](C2)N(C)CC[C@]314 [OXYCODONE] showed a fCmax [28] of 0.03 µM, an IC50 [3] of 2000 µM and a fCmax [29] of 1.06 µM. It also gave an uptake ratio at 2 min, 0.05 µM (OCT1 (SLC22A1) [6]) of 0.9, an uptake ratio at 2 min, 0.5 µM (OCT1 (SLC22A1) [7]) of 0.9 and a fCmax [30] of 0.03 µM. It also gave a fCmax [31] of 0.54 µM, a Papp (in vitro) of 17.9 ×10⁻⁶ cm/s and a Cmax [32] of 50 nM. The Ratio [33] was 0.0003, the Cmax [34] was 50 nM and the Ratio [35] was 0.001. For the same compound, the Ratio [36] was 0.00001, the uptake ratio at 2 min, 0.1 µM (OCT1 (SLC22A1) [12]) was 0.8 and the Ratio [37] was 0.00001.
For CN1CC[C@]23c4c5ccc(O)c4O[C@H]2C(=O)CC[C@H]3[C@H]1C5 [HYDROMORPHONE], the Activity (HEK293 [15]) was “inactive”, the Activity (HEK293 [16]) was “Active” and the Activity (HEK293 [18]) was “inactive”. The IC50 [3] was 138 µM, the Activity (HEK293 [20]) was “inactive” and the “fold change (FC)” value [38] was 1.7. The Activity (HEK293 [21]) was “Active”, the fCmax [39] was 0.72 µM and the fCmax [40] was 0.03 µM. The Cmax [41] was 40 nM and the Activity (HEK293 [26]) was “inactive”.
CN1CC[C@]23c4c5ccc(O)c4O[C@H]2[C@@H](O)C=C[C@H]3[C@H]1C5 [MORPHINE] gave a Cmax [42] of 1050 nM, a Cmax [43] of 250 nM and an IC50 [3] of 71.8 to 72 µM. The Cmax [44] was 30 nM and the Cmax [45] was 40 nM.
